Measured values reported in patent publication US20060069132A1, “Azolecarboxamide herbicides” (priority 2004, published 2006).

How the values were obtained:
Experiment in all cases: Test E pre-/postemergence herbicide test
Conditions in all cases: Preemergence
barnyardgrass = format: in vivo, Echinochloa crus-galli
Text: (§1) Seeds of plant species selected from bipinnate beggarticks (Bidens bipinnata L.), hairy beggarticks (Bidens radiata Thuill.), bermudagrass (Cynodon dactylon (L.) Pers.), Surinam grass (Urochloa decumbens (Staph) R. D. Webster, previously named Brachiaria decumbens Stapf), large crabgrass (Digitaria sanguinalis (L.) Scop.), green foxtail (Setaria viridis (L.) P. Beauv.), goosegrass (Eleusine indica (L.) Gaertn.), johnsongrass (Sorghum halepense (L.) Pers.), kochia (Kochia scoparia (L.) Schrad.), pitted morningglory (Ipomoea lacunosa L.), purple nutsedge (Cyperus rotundus L.), common ragweed (Ambrosia elatior L.), mustard (Brassica nigra (L.) W. D. J. Koch), guineagrass (Panicum maximum Jacq.), dallisgrass (Paspalum dilatatum Poir.), barnyardgrass (Echinochloa crus-galli (L). P. Beauv.), southern sandbur (Cenchrus echinatus L.), common sowthistle (Sonchus oleraceous L.), prickly sida (Sida spinosa L.), Italian ryegrass (Lolium multiflorum Lam.), common purslane (Portulaca oleracea L.), broadleaf signalgrass (Brachiaria platyphylla (Griseb.) Nash), common groundsel (Senecio vulgaris L.), common chickweed (Stellaria media (L.) Vill/Cyr.), tropical spiderwort (Commelina benghalensis L.), annual bluegrass (Poa annua L.), downy bromegrass (Bromus tectorum L.), itchgrass (Rottboellia cochinchinensis (L.) L.f.), quackgrass (Elytrigia repens (L.) Nevski), Canada horseweed (Erigeron Canadensis L.), field bindweed (Convolvulus arvensis L.), spotted spurge (Euphorbia maculata L.), common mallow (Malva sylvestris (=s silvestris) L.), and Russian thistle (Salsola kali L. ssp. Ruthenica (Iljin) Soo) were planted and treated preemergence with test chemicals formulated in a non-phytotoxic solvent mixture which included a surfactant.
(§2) At the same time, plants selected from these weed species were treated with postemergence applications of some of the test chemicals formulated in the same manner. Plants ranged in height from 2 to 18 cm (1- to 4-leaf stage) for postemergence treatments. Treated plants and controls were maintained in a greenhouse for 12 to 14 days, after which time all species were compared to controls and visually evaluated. Plant response ratings, summarized in Table E, are based on a scale of 0 to 100 where 0 is no effect and 100 is complete control. A dash (-) response means no test result.

goosegrass = format: in vivo, Eleusine indica
Text: as §1, §2

southern sandbur = format: in vivo, Cenchrus echinatus
Text: as §1, §2

common purslane = format: in vivo, Portulaca oleracea
Text: as §1, §2

field bindweed = format: in vivo, Convolvulus arvensis
Text: as §1, §2

johnsongrass = format: in vivo, Sorghum halepense
Text: as §1, §2

common groundsel = format: in vivo, Senecio vulgaris
Text: as §1, §2

purple nutsedge = format: in vivo, Cyperus rotundus
Text: as §1, §2

pitted morningglory = format: in vivo, Ipomoea lacunosa
Text: as §1, §2

mustard = format: in vivo, Brassica nigra
Text: as §1, §2

Italian ryegrass = format: in vivo, Lolium multiflorum
Text: as §1, §2

itchgrass = format: in vivo, Rottboellia cochinchinensis
Text: as §1, §2

green foxtail = format: in vivo, Setaria viridis
Text: as §1, §2

[1] = 250 g ai/ha, scale 0 (no effect) to 100 (complete control)
[2] = 500 g ai/ha, scale 0 (no effect) to 100 (complete control)

## CCc1nn(C(C)(C)CC)nc1C(=O)Nc1cccc(C(=O)N(C)C)c1 [Compound 372]
barnyardgrass; 62 g ai/ha, scale 0 to 100
  Plant response rating, Barnyardgrass: 50
barnyardgrass; 125 g ai/ha, scale 0 to 100
  Plant response rating, Barnyardgrass: 70
barnyardgrass; [1]
  Plant response rating, Barnyardgrass: 80
barnyardgrass; [2]
  Plant response rating, Barnyardgrass: 95
goosegrass; 62 g ai/ha, scale 0 to 100
  Plant response rating, Goosegrass: 40
goosegrass; 125 g ai/ha, scale 0 to 100
  Plant response rating, Goosegrass: 40
goosegrass; [1]
  Plant response rating, Goosegrass: 50
goosegrass; [2]
  Plant response rating, Goosegrass: 75
Southern sandbur; 62 g ai/ha, scale 0 to 100
  Plant response rating, Sandbur: 20
Southern sandbur; 125 g ai/ha, scale 0 to 100
  Plant response rating, Sandbur: 30
Southern sandbur; [1]
  Plant response rating, Sandbur: 60
Southern sandbur; [2]
  Plant response rating, Sandbur: 70
Common purslane; 62 g ai/ha, scale 0 to 100
  Plant response rating, Purslane: 10
Common purslane; 125 g ai/ha, scale 0 to 100
  Plant response rating, Purslane: 40
Common purslane; [1]
  Plant response rating, Purslane: 50
Common purslane; [2]
  Plant response rating, Purslane: 100
Field bindweed; 62 g ai/ha, scale 0 to 100
  Plant response rating, Bindweed, Field: 10
Field bindweed; 125 g ai/ha, scale 0 to 100
  Plant response rating, Bindweed, Field: 10
Field bindweed; [1]
  Plant response rating, Bindweed, Field: 50
Field bindweed; [2]
  Plant response rating, Bindweed, Field: 60
johnsongrass; 62 g ai/ha, scale 0 to 100
  Plant response rating, Johnsongrass: 30
johnsongrass; 125 g ai/ha, scale 0 to 100
  Plant response rating, Johnsongrass: 50
johnsongrass; [1]
  Plant response rating, Johnsongrass: 70
johnsongrass; [2]
  Plant response rating, Johnsongrass: 80
Common groundsel; 62 g ai/ha, scale 0 to 100
  Plant response rating, Groundsel: 20
Common groundsel; 125 g ai/ha, scale 0 to 100
  Plant response rating, Groundsel: 70
Common groundsel; [1]
  Plant response rating, Groundsel: 70
Common groundsel; [2]
  Plant response rating, Groundsel: 95
Purple nutsedge; 62 g ai/ha, scale 0 to 100
  Plant response rating, Nutsedge, Purple: 30
Purple nutsedge; [1]
  Plant response rating, Nutsedge, Purple: 50
Purple nutsedge; [2]
  Plant response rating, Nutsedge, Purple: 100
Pitted morningglory; 62 g ai/ha, scale 0 to 100
  Plant response rating, Morningglory: 10
Pitted morningglory; 125 g ai/ha, scale 0 to 100
  Plant response rating, Morningglory: 20
Pitted morningglory; [1]
  Plant response rating, Morningglory: 50
Pitted morningglory; [2]
  Plant response rating, Morningglory: 60
mustard; 62 g ai/ha, scale 0 to 100
  Plant response rating, Black Mustard: 100
mustard; 125 g ai/ha, scale 0 to 100
  Plant response rating, Black Mustard: 100
mustard; [1]
  Plant response rating, Black Mustard: 100
mustard; [2]
  Plant response rating, Black Mustard: 100
Italian ryegrass; 62 g ai/ha, scale 0 to 100
  Plant response rating, Ryegrass, Italian: 60
Italian ryegrass; 125 g ai/ha, scale 0 to 100
  Plant response rating, Ryegrass, Italian: 70
Italian ryegrass; [1]
  Plant response rating, Ryegrass, Italian: 95
Italian ryegrass; [2]
  Plant response rating, Ryegrass, Italian: 95
itchgrass; 62 g ai/ha, scale 0 to 100
  Plant response rating, Itchgrass: 30
itchgrass; 125 g ai/ha, scale 0 to 100
  Plant response rating, Itchgrass: 60
itchgrass; [1]
  Plant response rating, Itchgrass: 60
itchgrass; [2]
  Plant response rating, Itchgrass: 80
Green foxtail; 62 g ai/ha, scale 0 to 100
  Plant response rating, Foxtail, Green: 10
Green foxtail; 125 g ai/ha, scale 0 to 100
  Plant response rating, Foxtail, Green: 50
Green foxtail; [1]
  Plant response rating, Foxtail, Green: 60
Green foxtail; [2]
  Plant response rating, Foxtail, Green: 70
